Assays:
[1] = system: HCT-116 human colorectal carcinoma cells; assay: Cell proliferation assay, Alamar Blue, HCT-116; assay type: cell-based;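 further: cells exposed to compound for about 4 days, then Alamar Blue added and fluorescence read after about 4 h, medium-only wells as control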
A549 = assay: Cell proliferation assay, Alamar Blue, A549; assay type: cell-based; conditions: Homo sapiens, Table 16
Protocol: (§1) c. Plate 4,000-5,000 cells per well in 100 μl of medium and seed into a 96-well plate according to the following plate layout. Add cell culture medium only to wells B10 to B12. Wells B1 to B9 have cells but no compound added.
(§2) d. Add 100 μl of 2× drug dilution to each well in a concentration shown in the plate layout above. At the same time, add 100 μl of media into the control wells (wells B10 to B12). Total volume is 200 μl/well.
(§3) e. Incubate four (4) days at 37° C., 5% CO2 in a humidified incubator.
(§4) f. Add 20 μl Alamar Blue reagent to each well.
(§5) g. Incubate for four (4) hours at 37° C., 5% CO2 in a humidified incubator.
(§6) h. Record fluorescence at an excitation wavelength of 544 nm and emission wavelength of 590 nm using a microplate reader.
(§7) In the assays, cells are cultured with a test compound for approximately four days, the dye then is added to the cells and fluorescence of […] dye is detected after approximately four hours. Different types of cells can be utilized in the assays (e.g., HCT-116 human colorectal carcinoma cells, PC-3 human prostatic cancer cells and MiaPaca human pancreatic carcinoma cells). Anti-proliferative effects of representative compounds are provided hereafter.

[2] = system: MiaPaca human pancreatic carcinoma cells; assay: Cell proliferation assay, Alamar Blue, MiaPaca; assay type: cell-based; conditions: MIA PaCa-2, Table 16
Outline: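 Read-out is Alamar Blue fluorescence (ex 544 nm, em 590 nm), measured after a 4-hour dye incubation that follows four days of compound treatment at 37° C. Wells are seeded with 4,000-5,000 cells.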

Hs578T = assay: Cell proliferation assay, Alamar Blue, Hs578T; assay type: cell-based; conditions: Homo sapiens, Hs-578T; Table 16
Jurkat = assay: Cell proliferation assay, Alamar Blue, Jurkat; assay type: cell-based; conditions: Homo sapiens, Table 16;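 further: cells exposed to compound for about 4 days at 37 °C, then Alamar Blue added and fluorescence read after about 4 h, controls given medium without drug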
H1299 = assay: Cell proliferation assay, Alamar Blue, H1299; assay type: cell-based; conditions: Homo sapiens, NCI-H1299; Table 16
Protocol: as §1, §2, §3, §4, §5, §6, §7

BxPC3 = assay: Cell proliferation assay, Alamar Blue, BxPC3; assay type: cell-based; conditions: Homo sapiens, BXPC-3
Protocol: as §1, §2, §3, §4, §5, §6, §7

HT29 = assay: Cell proliferation assay, Alamar Blue, HT29; assay type: cell-based; conditions: Homo sapiens, HT-29
Protocol: as §1, §2, §3, §4, §5, §6, §7

[3] = system: PC-3 human prostatic cancer cells; assay: Cell proliferation assay, Alamar Blue, PC-3; assay type: cell-based; conditions: Table 16, read-out: IC50 PC3
Protocol: (§8) A representative cell-proliferation assay protocol using Alamar Blue dye (stored at 4° C., use 20 ul per well) is described hereafter.
as §1, §2, §3, §4, §5, §6, §7

MiaPaca xenografts = assay: Tumor suppression in MiaPaca xenograft mice; assay type: in vivo
[4] = Pharmacokinetics in ICR mice after IV and PO dose; assay type: in vivo
PC-3 xenografts = assay: Tumor suppression in PC-3 xenograft animals; assay type: in vivo, mice; conditions: oral 150 mg/kg
Protocol: (§9) Animals were handled under laminar-flow hoods.
(§10) Gemar™ administered at a dose of 80 mg/kg IP Q3D was used as a positive control.

caspase-3 = assay: Caspase-3 staining in tumors as biomarker; assay type: in vivo, mice; conditions: 60 mg/kg IV
Protocol: Caspase staining also was assessed as a biomarker for compound A1 treatment of tumors.

MCF-7 xenografts = assay: Tumor suppression in MCF-7 xenograft animals; assay type: in vivo, mice; conditions: oral 100 mg/kg
Protocol: as §9, §10

PanC1 = assay: Cell proliferation assay, Alamar Blue, PanC1; assay type: cell-based; conditions: Homo sapiens, PANC-1; Table 19b; read-out: IC50 PanC1
Protocol: as §8, §1, §2, §3, §4, §5, §6, §7

[5] = HCT-116, Table 16, second HCT-116 column

SMILES | IC50 [1, 5] [µM] | IC50 (A549) [µM] | IC50 [2] [µM] | IC50 (Hs578T) [µM] | IC50 (Jurkat) [µM] | IC50 (H1299) [µM] | IC50 (HT29; Table 16) [µM] | IC50 [3] [µM] | further results
O=C(O)c1ccc2c(c1)nc(Nc1cc(Cl)cc(Cl)c1)c1ccsc12 [drawing 984] | 8.76 | 13.2 | 14.6 | 7.67 | 4.31 | 0.97 | 13 | 32.2 | IC50 (BxPC3; Table 16): 2.1 µM
C#Cc1cccc(Nc2nc3cc(C(=O)O)ccc3c3sccc23)c1 [drawing 938] | – | 27.7 | > 10 | 9.96 | – | 16.9 | 23.1 | 17.8 | –
O=C(O)c1ccc2c(c1)nc(Nc1cccc(C(F)(F)F)c1)c1nc(NC3CC3)ncc12 [compound A3] | – | – | – | – | – | – | – | – | Tumor progression inhibition (MiaPaca xenografts; MiaPaca xenografts, IV administration): significantly inhibited tumor progression
O=C(O)c1ccc2c(c1)nc(Nc1ccc(F)c(Cl)c1)c1ncsc12 | 15 | > 50 | > 10 | 28.2 | 15.2 | 41.8 | > 50 | > 50 | –
O=C(O)c1ccc2c(c1)nc(Nc1cccc(Cl)c1)c1ccncc12 [compound A1] | – | – | – | – | – | – | – | – | CLs ([4]; IV 5 mg/kg): 25 mL/min/kg; Cp0-exp ([4]; IV 5 mg/kg): 13201 ng/mL; Kel ([4]; IV 5 mg/kg): 0.1586 h⁻¹; F(0-8 h) ([4]; PO 25 mg/kg): 10.9%; F(0-inf h) ([4]; PO 25 mg/kg): 18.7%; Kel ([4]; PO 25 mg/kg): 0.1076 h⁻¹; AUC(0-inf) ([4]; mouse, plasma, IV 5 mg/kg): 3360 ng·h/mL; AUC(0-t) ([4]; mouse, plasma, IV 5 mg/kg): 3340 ng·h/mL; Vd ([4]; mouse, plasma, IV 5 mg/kg): 9.4 L/kg; AUC(0-inf) ([4]; mouse, plasma, PO 25 mg/kg): 3150 ng·h/mL; AUC(0-t) ([4]; mouse, plasma, PO 25 mg/kg): 2920 ng·h/mL; Cmax ([4]; mouse, plasma, PO 25 mg/kg): 343 ng/mL; Tmax ([4]; mouse, plasma, PO 25 mg/kg): 15 min; Tumor growth inhibition (PC-3 xenografts): significantly inhibited tumor growth; Caspase-3 cell staining levels vs untreated control cells (caspase-3): four-fold greater; Tumor growth inhibition (MCF-7 xenografts): significantly inhibited tumor growth; Tumor growth inhibition (MiaPaca xenografts; MiaPaca xenograft, oral 100 mg/kg QDx8 then 200 mg/kg QDx5, relative to untreated control): significantly inhibited tumor growth
O=C(O)c1ccc2c(c1)nc(NCCCc1ccccc1)c1ccncc12 [drawing 1221] | – | – | – | – | – | – | – | – | IC50 (PanC1): 34.4 µM; IC50 (BxPC3; Table 19b): 23.4 µM; IC50 (HT29; Table 19b): 16.4 µM
O=C(O)c1ccc2c(c1)nc(NCCc1cccc(Cl)c1)c1ccncc12 [drawing 1219] | – | – | – | – | – | – | – | – | IC50 (PanC1): 28.1 µM; IC50 (BxPC3; Table 19b): 24.3 µM; IC50 (HT29; Table 19b): 34 µM
O=C(O)c1ccc2c(c1)nc(Nc1cc(F)cc(F)c1)c1ccsc12 | > 10 | 7.45 | 6.36 | 7.31 | 5.86 | 8.14 | 2 | 6.11 | –
NS(=O)(=O)c1cccc(Nc2nc3cc(C(=O)O)ccc3c3sccc23)c1 | > 10 | 7.6 | > 10 | 11 | – | 9.9 | 4.6 | 44.9 | –
O=C(O)c1ccc2c(c1)nc(NCCc1cccc(F)c1)c1ccncc12 [drawing 1220] | – | – | – | – | – | – | – | – | IC50 (PanC1): 28.2 µM; IC50 (BxPC3; Table 19b): 3.29 µM; IC50 (HT29; Table 19b): 31.3 µM
c1ccc(Nc2nc3cc(-c4nnc[nH]4)ccc3c3sccc23)cc1 | 7.6 | 14.4 | – | 5.5 | 6.26 | 17.8 | – | 7.26 | IC50 ([1]; HCT-116, Table 16, first HCT-116 column): 5 µM; IC50 (BxPC3; Table 16): 1.97 µM
O=C(O)c1ccc2c(c1)nc(Nc1cccc(F)c1)c1ncsc12 | 15 | > 50 | > 10 | > 50 | 40.2 | 21.6 | > 50 | > 50 | –
O=C(NC1CC1)c1cccc(Nc2nc3cc(-c4nnn[nH]4)ccc3c3sccc23)c1 | > 10 | 4.49 | 3.18 | 7.79 | 6.97 | 12.7 | 3.22 | 5.31 | –
CNC(=O)c1cccc(Nc2nc3cc(C(=O)O)ccc3c3sccc23)c1 | > 10 | 6.94 | > 10 | 9.07 | 8.69 | 13.8 | 3.56 | 26.7 | –
O=C(O)c1ccc2c(c1)nc(Nc1ccccc1)c1ncsc12 | > 10 | > 50 | > 10 | > 50 | 7.43 | 38.8 | > 50 | > 50 | –
O=C(O)c1ccc2c(c1)nc(Nc1cccc(Cl)c1)c1ccsc12 | – | 11.7 | 9.82 | 9.7 | – | 14.3 | 5.36 | 16.7 | –
O=C(O)c1ccc2c(c1)nc(Nc1cc(Cl)ccc1F)c1ccsc12 | > 10 | 31.1 | > 10 | – | – | 17.5 | > 50 | > 50 | –
O=C(O)c1ccc2c(c1)nc(Nc1cccc(F)c1)c1ccsc12 | > 10 | 6.23 | 7.28 | 8.67 | 5.93 | 8.78 | 1.89 | 2.66 | –
N#Cc1cccc(Nc2nc3cc(C(=O)O)ccc3c3sccc23)c1 | – | 16 | > 10 | 12.3 | – | 19.1 | 16.6 | > 50 | –
COc1cccc(Nc2nc3cc(C(=O)O)ccc3c3scnc23)c1 | > 10 | > 50 | > 10 | > 50 | – | 18.5 | > 50 | > 50 | –
